Experimental data: ChEMBL document CHEMBL4334523, “Enzymatic Preparation of 2'-5',3'-5'-Cyclic Dinucleotides, Their Binding Properties to Stimulator of Interferon Genes Adaptor Protein, and Structure/Activity Correlations” (J Med Chem, 2019)

Assays:
[1] = target: T1, Stimulator of interferon genes protein (Homo sapiens, UniProt Q86WV6); assay: Activation of recombinant human wild-type STING expressed in 293T cells incubated for 7 hrs in absence of digitonin A by bright Glo-luciferase reporter gene assay; type: cell-based
T1 sequence (Q86WV6 whole entry): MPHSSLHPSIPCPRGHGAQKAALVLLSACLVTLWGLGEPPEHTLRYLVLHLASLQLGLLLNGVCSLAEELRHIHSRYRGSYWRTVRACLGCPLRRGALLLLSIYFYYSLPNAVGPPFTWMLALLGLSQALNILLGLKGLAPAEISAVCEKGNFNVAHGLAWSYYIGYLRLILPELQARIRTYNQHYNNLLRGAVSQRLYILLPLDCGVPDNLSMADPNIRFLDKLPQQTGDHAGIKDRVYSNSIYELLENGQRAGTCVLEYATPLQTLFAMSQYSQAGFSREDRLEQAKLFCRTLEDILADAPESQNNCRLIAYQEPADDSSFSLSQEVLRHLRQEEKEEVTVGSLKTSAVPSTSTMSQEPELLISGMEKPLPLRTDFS

[2] = target: T1, Stimulator of interferon genes protein; assay: Activation of recombinant human wild-type STING expressed in 293T cells measured after 30 mins in presence of digitonin A by bright Glo-luciferase reporter gene assay; type: cell-based
[3] = target: Stimulator of interferon genes protein (Homo sapiens, UniProt Q86WV6, G230A/R293Q/R71H); assay: Activation of recombinant human STING haplotype R71H/G230A/R293Q mutant expressed in 293T cells measured after 30 mins in presence of digitonin A by bright Glo-luciferase reporter gene assay; type: cell-based
Sequence of Stimulator of interferon genes protein (Homo sapiens, UniProt Q86WV6, G230A/R293Q/R71H) (Q86WV6 whole entry R71H/G230A/R293Q): as the sequence (Q86WV6 whole entry) above, with R71H, G230A, R293Q counted along it

[4] = target: Stimulator of interferon genes protein (Homo sapiens, UniProt Q86WV6, G230A/R293Q); assay: Activation of recombinant human STING haplotype G230A/R293Q mutant expressed in 293T cells measured after 30 mins in presence of digitonin A by bright Glo-luciferase reporter gene assay; type: cell-based
Sequence of Stimulator of interferon genes protein (Homo sapiens, UniProt Q86WV6, G230A/R293Q) (Q86WV6 whole entry G230A/R293Q): as the sequence (Q86WV6 whole entry) above, with G230A, R293Q counted along it

[5] = target: Stimulator of interferon genes protein (Homo sapiens, UniProt Q86WV6, R293Q); assay: Activation of recombinant human STING haplotype R293Q mutant expressed in 293T cells measured after 30 mins in presence of digitonin A by bright Glo-luciferase reporter gene assay; type: cell-based
Sequence of Stimulator of interferon genes protein (Homo sapiens, UniProt Q86WV6, R293Q) (Q86WV6 whole entry R293Q): as the sequence (Q86WV6 whole entry) above, with R293Q counted along it

Monocyte = assay: Cytotoxicity against human PBMC-derived monocytes assessed as CD3-negative CD14 positive monocyte viability at 12.5 uM incubated for 16 hrs by Zombie-NIR staining-based flow cytometry relative to control; type: functional
Homo sapiens = species on record: Homo sapiens; type: cell-based
[6] = Cytotoxicity against human PBMC-derived CD3-positive T cells assessed as effect on cell viability at 12.5 uM incubated for 16 hrs by Zombie-NIR staining-based flow cytometry
[7] = target: T1, Stimulator of interferon genes protein
Description: Binding affinity to recombinant human wild-type STING assessed as change in melting temperature at 150 uM by SYPRO orange dye based differential scanning fluorimetric method

cells = settings: Homo sapiens, HEK-293T, 0.5 h
Description: Activation of recombinant human STING haplotype R232H mutant expressed in 293T cells measured after 30 mins in presence of digitonin A by bright Glo-luciferase reporter gene assay

| EC50 [1] [µM] | EC50 [2] [µM] | EC50 [3] [µM] | EC50 [4] [µM] | EC50 [5] [µM] | ΔTm [7] [°C] | EC50 (cells) [µM] | Structure (SMILES) | Activity (Monocyte) [%] | max activation (Homo sapiens) [%] | Activity [6] |
| --- | --- | --- | --- | --- | --- | --- | --- | --- | --- | --- |
| 53.9 | 0.02 | 0.04 | 0.04 | 0.7 | 9.2 | 1.6 | Nc1ncc2ncn([C@@H]3O[C@@H]4COP(=O)(O)O[C@@H]5[C@H](O)[C@@H](COP(=O)(O)O[C@H]4[C@H]3O)O[C@H]5n3cnc4c(=O)[nH]c(N)nc43)c2n1 | 0.6 | < 30 | Non-Toxic |
| 241 | 0.11 | 0.25 | 0.05 | 3 | 2.8 | 6 | Nc1nc2c([C@@H]3O[C@@H]4COP(=O)(O)O[C@H]5[C@@H](O)[C@H](n6cnc7c(N)ncnc76)O[C@@H]5COP(=O)(O)O[C@@H]3[C@@H]4O)scc2c(=O)[nH]1 | 0.9 | < 30 | Non-Toxic |
| 187 | 0.2 | 0.1 | 0.06 | 0.6 | 12.3 | 6.4 | Nc1nc2c(ncn2[C@@H]2O[C@@H]3COP(=O)(O)O[C@H]4[C@H](O)[C@H](n5cnc6c(N)nc(F)nc65)O[C@@H]4COP(=O)(O)O[C@@H]2[C@@H]3O)c(=O)[nH]1 | 3 | < 30 | Non-Toxic |
| 58.2 | 0.07 | 0.08 | 0.09 | 0.96 | 9.5 | 4.7 | Nc1nc2c(ncn2[C@@H]2O[C@@H]3COP(=O)(O)O[C@H]4C[C@H](n5cnc6c(N)nc(Cl)nc65)O[C@@H]4COP(=O)(O)O[C@@H]2[C@@H]3O)c(=O)[nH]1 | 0.1 | < 30 | Non-Toxic |
| 63.7 | 0.02 | 0.06 | 0.06 | 1.2 | 9 | 0.7 | CNc1ncnc2c1ncn2[C@@H]1O[C@@H]2COP(=O)(O)O[C@@H]3[C@H](O)[C@@H](COP(=O)(O)O[C@H]2[C@H]1O)O[C@H]3n1cnc2c(=O)[nH]c(N)nc21 | 0.8 | < 30 | Non-Toxic |
| > 300 | 1.8 | 1.7 | 2 | 32.8 | 2.4 | 20.9 | Nc1nc2c(ncn2[C@@H]2O[C@@H]3COP(=O)(O)O[C@H]4[C@@H](O)[C@H](n5cnc6c(O)nc(O)nc65)O[C@@H]4COP(=O)(O)O[C@@H]2[C@@H]3O)c(=O)[nH]1 | 45 | < 30 | Non-Toxic |
| 11 | 0.02 | 0.08 | 0.03 | 0.08 | 14.7 | 0.07 | Nc1nc2c(ncn2[C@@H]2O[C@@H]3COP(=O)(O)O[C@H]4[C@@H](F)[C@H](n5cnc6c(N)nc(F)nc65)O[C@@H]4COP(=O)(O)O[C@@H]2[C@@H]3O)c(=O)[nH]1 | 0.4 | < 30 | Non-Toxic |
| > 300 | 0.23 | 0.31 | 0.21 | 5.72 | 3.9 | 34.2 | Nc1nc2c(ncn2[C@@H]2O[C@@H]3COP(=O)(O)O[C@H]4[C@@H](O)[C@H](n5nnc6c(N)ncnc65)O[C@@H]4COP(=O)(O)O[C@@H]2[C@@H]3O)c(=O)[nH]1 | 2.3 | < 30 | Non-Toxic |
| 182 | 0.3 | 0.2 | 0.15 | 8.3 | 7.3 | 1.7 | Nc1nc2c(ncn2[C@@H]2O[C@@H]3COP(=O)(O)O[C@H]4[C@@H](O)[C@H](n5cnc6c(=S)[nH]cnc65)O[C@@H]4COP(=O)(O)O[C@@H]2[C@@H]3O)c(=O)[nH]1 | 10 | < 30 | Non-Toxic |
| > 300 | 0.32 | 0.21 | 0.21 | 45.3 | 1.7 | > 45 | NC(=O)c1ncn([C@@H]2O[C@@H]3COP(=O)(O)O[C@@H]4[C@H](O)[C@@H](COP(=O)(O)O[C@H]3[C@H]2O)O[C@H]4n2cnc3c(=O)[nH]c(N)nc32)c1N | 83 | < 30 | Non-Toxic |
| 108 | 0.02 | 0.03 | 0.02 | 0.24 | 9.4 | 1.4 | Nc1nc2c(ncn2[C@@H]2O[C@@H]3COP(=O)(O)O[C@H]4[C@@H](N)[C@H](n5cnc6c(N)ncnc65)O[C@@H]4COP(=O)(O)O[C@@H]2[C@@H]3O)c(=O)[nH]1 | 3 | < 30 | Non-Toxic |
| > 300 | 0.05 | 0.1 | 0.17 | 0.7 | 10.7 | 2 | Nc1nc2c(ncn2[C@@H]2O[C@@H]3COP(=O)(O)O[C@H]4C[C@H](n5cnc6c(N)nc(F)nc65)O[C@@H]4COP(=O)(O)O[C@@H]2[C@@H]3F)c(=O)[nH]1 | 0.2 | < 30 | Non-Toxic |
| > 300 | 0.3 | 0.48 | 0.24 | 8.5 | 3.5 | 27.6 | CSc1nc(N)nc2c1ncn2[C@@H]1O[C@@H]2COP(=O)(O)O[C@@H]3[C@H](O)[C@@H](COP(=O)(O)O[C@H]2[C@H]1O)O[C@H]3n1cnc2c(=O)[nH]c(N)nc21 | 4.8 | < 30 | Non-Toxic |
| 40 | 0.02 | 0.04 | 0.04 | 0.78 | 9 | 0.9 | Cn1c(N)nc2c(ncn2[C@@H]2O[C@@H]3COP(=O)(O)O[C@H]4[C@@H](O)[C@H](n5cnc6c(N)ncnc65)O[C@@H]4COP(=O)(O)O[C@@H]2[C@@H]3O)c1=O | 2 | < 30 | Non-Toxic |
| 149 | 0.05 | 0.3 | 0.14 | 2.2 | 8.8 | 2.1 | Nc1nc2c(ncn2[C@@H]2O[C@@H]3COP(=O)(O)O[C@H]4[C@@H](O)[C@H](n5cnc6c(=O)[nH]cnc65)O[C@@H]4COP(=O)(O)O[C@@H]2[C@@H]3O)c(=O)[nH]1 | 17 | < 30 | Non-Toxic |
| 13.3 | 0.01 | 0.06 | 0.06 | 1.23 | 8.3 | 2.3 | CSc1ncnc2c1ncn2[C@@H]1O[C@@H]2COP(=O)(O)O[C@@H]3[C@H](O)[C@@H](COP(=O)(O)O[C@H]2[C@H]1O)O[C@H]3n1cnc2c(=O)[nH]c(N)nc21 | 0.4 | < 30 | Non-Toxic |
| 27.6 | 0.02 | 0.04 | 0.03 | 0.13 | 14.4 | 0.17 | Nc1nc(N)c2ncn([C@@H]3O[C@@H]4COP(=O)(O)O[C@@H]5[C@H](O)[C@@H](COP(=O)(O)O[C@H]4[C@H]3F)O[C@H]5n3cnc4c(=O)[nH]c(N)nc43)c2n1 | 2.5 | < 30 | Non-Toxic |
| 40.4 | 0.04 | 0.1 | 0.06 | 1.1 | 6.6 | 3.5 | Nc1nc2c(ccn2[C@@H]2O[C@@H]3COP(=O)(O)O[C@H]4[C@@H](O)[C@H](n5cnc6c(N)ncnc65)O[C@@H]4COP(=O)(O)O[C@@H]2[C@@H]3O)c(=O)[nH]1 | 0.9 | < 30 | Non-Toxic |
| > 300 | 0.83 | 0.4 | 0.42 | 47.2 | 0.6 | > 45 | NC(=O)c1ncn([C@@H]2O[C@@H]3COP(=O)(O)O[C@H]4[C@@H](O)[C@H](n5cnc6c(N)ncnc65)O[C@@H]4COP(=O)(O)O[C@@H]2[C@@H]3O)c1N | 87 | < 30 | Non-Toxic |

| Structure (SMILES) | EC50 [1] [µM] | EC50 [2] [µM] | EC50 [3] [µM] | EC50 [4] [µM] | EC50 [5] [µM] | ΔTm [7] [°C] | EC50 (cells) [µM] | Activity (Monocyte) [%] | max activation (Homo sapiens) [%] | Activity [6] |
| --- | --- | --- | --- | --- | --- | --- | --- | --- | --- | --- |
| Nc1nc2c(ncn2[C@@H]2O[C@@H]3COP(=O)(O)O[C@@H]4[C@H](O)[C@@H](COP(=O)(O)O[C@@H]2[C@@H]3O)O[C@H]4n2cnc3c(N)ncnc32)c(=O)[nH]1 | 39.2 | 0.03 | 0.02 | 0.03 | 0.17 |  | 0.21 | 2.8 | < 30 | Non-Toxic |
